Assay results from patent US4835252A, “Vasoactive intestinal peptide analogs” (The Salk Institute Biotechnology/Industrial Associates, Inc., priority 1987, dated 1989).
No end group written: not given here.

Legend:
[1] = biological target: VIP receptors in rat lung membrane
Procedure: Radioreceptor assays were carried out to determine the affinities of analogs of Example I for VIP receptors in rat lung membrane, following Leroux et al., Endocrinology 114, 1506-1512 (1984).
The following buffers were prepared:
Buffer A: 250 mM sucrose, 5 mM MgCl2, 25 mM Tris, pH 7.4
Buffer B: 5 mM MgCl2, 25 mM Tris, pH 7.4
Buffer C: 25 mM Tris, 5 mM MgCl2, 1 mg/ml bacitracin, 2 mg/ml bovine serum albumin ("BSA"), pH 7.4
Phenylmethylsulfonyl fluoride ("PMSF") was added, to a final concentration of 1 mM, to the buffers immediately prior to their use.
^125 I-labeled, human VIP (^125 I-VIP) was purchased from New England Nuclear (Boston, Mass., U.S.A.). The peptide as purchased was diluted to 10^-5 Ci/ml with Buffer C and stored in 25 ul or 50 ul aliquots at -20° C., which were subsequently diluted with Buffer C, as described below, for the assays.
Rat lung membrane was prepared for the assay as follows, following Leroux et al., supra: Five female Sprague-Dawley rats (200-250 g) were sacrificed and their hearts perfused with iced, phosphate-buffered saline (PBS) through the right atrium (approximately 30 ml PBS per rat). The lungs, which were whitened, were then removed and placed directly in iced PBS and any blood was rinsed from the tissue. The lung tissue was then transferred to a weighing device on ice; blood vessels, fat and the like were removed from the tissue; and the tissue was blotted and weighed. The lung tissue was then transferred to a 50 cm^3 Falcon tube with 2 ml of Buffer A per g lung tissue (approximately 25 ml Buffer A) and homogenized at 4° C. 1 minute in a polytron (Brinkmann Instruments Co., Westbury, N.Y., U.S.A.) and then with a glass/teflon homogenizer (approximately 5-6 strokes). The homogenate was filtered through two layers of cheesecloth, and the filtrate was then transferred to tubes for centrifugation at 30,000×g for 10 minutes. The pellets were then resuspended in approximately 70 ml of Buffer B using a glass/teflon homogenizer and the resulting suspensions were again centrifuged at 30,000×g for ten minutes. The resulting pellets were resuspended in 50 ml of Buffer B using a glass/teflon homogenizer. The suspension was divided into 1.0 ml aliquots in microfuge tubes, which were quickly frozen and stored on dry ice until use.
When used, an aliquot of suspension was thawed and microfuged at 4° C. for several minutes to pellet suspended material. The supernatant was carefully removed and the pellet resuspended in 1 ml of Buffer C.
Prior to use of a VIP receptor-containing suspension in an assay, the protein concentration was adjusted to 2 mg/ml by addition of Buffer C. Then 100 ul of this suspension (2 mg/ml) was combined with 100 ul of solution of ^125 I-VIP, 100 ul of solution of the VIP or analog thereof being assayed and 200 ul of Buffer C; consequently, the concentration of protein from the rat lung VIP receptor preparations used in the assays was 0.4 mg/ml.
In the radioreceptor assays, the ability of analog to displace ^125 I-VIP from binding in the receptor preparation was measured by a standard procedure. For each analog, and naturally occurring human VIP as standard, a series of solutions, of 500 ul total volume in Buffer C, containing various concentrations of analog or standard (between about 10^-11 M and 10^-6 M), ^125 I-VIP at 100 cpm/ul (about 2×10^-10 M), and receptor preparation (0.4 mg protein/ml) were assayed.

[2] = test system: dispersed guinea pig pancreatic acinar cells; test: Amylase-release assay with dispersed pancreatic acinar cells; type: cell-based; details: ED50 for the human VIP standard divided by ED50 for the analog; 30 minutes at 37° C.
Procedure: The bioactivity of analogs of Example I, chicken VIP, guinea pig VIP, and human VIP without amidation at the carboxy-terminus was determined, relative to that of naturally occurring human VIP, by an amylase-release assay employing dispersed guinea pig pancreatic acinar cells. The assay was essentially that described by Peikin et al., Am. J. Physiol. 235, E743-E749 (1978).
For the assays conducted each day, dispersed acinar cells, free of debris, were freshly prepared from a pancreas of a male or female guinea pig (120-150 gm), following generally the method described by Peikin et al., supra.
The procedure employed a "standard incubation medium," which consisted of 95 mM NaCl; 6 mM KCl; 2.5 mM NaH2 PO4; 5 mM each of sodium pyruvate, sodium fumarate and sodium glutamate; 0.5 mM CaCl2, 1.0 mM MgCl2, 11.5 mM glucose, 0.05 mg/ml glutamine; amino acids and vitamius from Eagle's Minimum Essential Medium at their concentration in such Eagle's Medium; 25 mM HEPES; 0.08 mg/ml soybean trypsin inhibitor (Calbiochem); pH 7.4.
The animal was sacrificed, its pancreas removed and the pancreas trimmed of fat, blood vessels, duodenum and the like. With a syringe with a 25 gauge needle, 10.0 ml of collagenase solution (standard incubation medium with 0.2 mg/ml C. histolyticum collagenase and 2 mg/ml BSA (Fraction V) (both from Calbiochem, San Diego, California, U.S.A.)) was injected into the pancreas, which was then transferred to a 25 ml flask, gassed with 100% O2, and shaken on a shaker as rapidly as possible for 10 minutes at 37° C. Then the liquid was poured off and replaced with another 5.0 ml of collagenase solution, and the gassing with 100% O2 and shaking for 10 minutes at 37° C. were repeated. The replacement of liquid, gassing with 100% O2 and shaking at 37° C. were again repeated. If, by visual inspection, digestion appeared to be incomplete, vigorous shaking by hand with 1 minute incubation at 37° C. were repeated until digestion was complete. The mass was then broken up further by passing chunks through a large bore serological pipette, and then a small bore pipette. Very large chunks, fur and debris were removed with a long Pasteur pipette. Then half of the resulting acinar cell suspension was placed into each of two 15 ml clear, polystyrene tubes, each containing 4.0 ml of 4.0% BSA solution (standard incubation medium with 40 mg/ml BSA (Fraction V) and 2 mM, rather than 0.5 mM, CaCl2). Both combinations were mixed thoroughly and debris was again removed. The resulting suspensions were spun at medium speed in a tabletop centrifuge for 30 seconds, the supernatants were discarded, and the pellets were resuspended in 4.0 ml of 4.0% BSA and 4.0 ml of 0.2% BSA solution (standard suspension medium with 2 mg/ml BSA (Fraction V) and 2 mM, rather than 0.5 mM, CaCl2), the suspension was again cleaned of debris, and then spun as above with the tabletop centrifuge. The supernatants were discarded and the pellets again washed with 4.0 ml of 4% BSA solution and repelleted as above with the tabletop centrifuge. Again, the supernatants were discarded and the pellets were carried into one 250 ml Erlenmeyer flask, to which 50.0 ml of 1% BSA solution (standard incubation medium with 10 mg/ml BSA (Fraction V) and 5 mM theophylline) had been added. When the cells were not used immediately, the suspension was gassed with 100% O2. The preparation was acceptable for use in an assay only if the cells were fine and well dispersed and there was nothing visible in the preparation other than cells. […]

[3] = Stability against proteolytic degradation in crude rat-lung homogenate; details: 10^-5 M peptide in crude rat lung homogenate, 37° C., intact peptide by HPLC
Procedure: The stability of naturally occurring, human VIP and various analogs described in Example I was assessed by determining their resistance to degradation when incubated with a crude rat-lung homogenate.
For the assay, the lungs were taken from a female Sprague-Dawley rat and were perfused with ice-cold phosphate-buffered saline, as described in Example II. The whitened lungs were polytroned and then homogenized in Degradation Assay Buffer (25 mM Tris, 5 mM MgCl2, pH 7.4), and the homogenate was filtered through cheesecloth. The filtrate was then diluted to a final volume of 500 ml with Degradation Assay Buffer, to yield the crude lung homogenate.
Resistance to degradation was measured by determining the half-life of the human VIP or analog in the crude lung homogenate. To determine these half-lives, the human VIP or analog was added to 1 ml of the crude homogenate to a concentration of 10^-5 M, and the mixture was incubated at 37° C. After incubation for the desired time period, the sample was placed in a 100° C. bath and boiled for 5 minutes, and then acidified with glacial acetic acid (10% final volume) and, finally, cooled rapidly by being placed on dry ice. The sample was then microfuged at 4° C. for 15 minutes, and the supernatant analysized for peptide content by HPLC.

Molecule	IC50 ([1]; read-out: concentration required to displace half of the 125I-VIP / occupy half the receptor sites, rat lung membrane receptor preparation at 0.4 mg protein/ml)	Potency (Amylase Release Assay) [2]	HALF-LIFE [3]	RELATIVE IC50 [1]
CC[C@H](C)[C@H](NC(=O)[C@H](CO)NC(=O)[C@H](CC(N)=O)NC(=O)[C@H](CC(C)C)NC(=O)[C@H](Cc1ccc(O)cc1)NC(=O)[C@H](CCCCN)NC(=O)[C@H](CCCCN)NC(=O)[C@@H](NC(=O)[C@H](C)NC(=O)[C@H](CCSC)NC(=O)[C@H](CCC(N)=O)NC(=O)[C@H](CCCCN)NC(=O)[C@H](CCCNC(=N)N)NC(=O)[C@H](CC(C)C)NC(=O)[C@H](CCCNC(=N)N)NC(=O)[C@@H](NC(=O)[C@H](Cc1ccc(O)cc1)NC(=O)[C@H](CC(N)=O)NC(=O)[C@H](CC(=O)O)NC(=O)[C@@H](NC(=O)[C@H](Cc1ccccc1)NC(=O)[C@@H](NC(=O)[C@H](C)NC(=O)[C@H](CC(=O)O)NC(=O)[C@H](CO)NC(=O)[C@@H](N)Cc1c[nH]cn1)C(C)C)[C@@H](C)O)[C@@H](C)O)C(C)C)C(=O)N[C@@H](CC(C)C)C(=O)N[C@@H](CC(N)=O)C(N)=O [Human VIP, HSDAVFTDNYTRLRKQMAVKKYLNSILN-NH2, reference compound]	~0.5 nM	1.0	16 min	–
HSDAVYSDSFRSYRSRVALSRFVRNVVT-NH2 [Analog III, HSDAVYSDSFRSYRSRVALSRFVRNVVT-(NH2)i]	–	1.0 × 10^-3	4 min	2350
HSDAVYSDSFSRYRRSVALRRFVSNVVT-NH2 [Analog I, HSDAVYSDSFSRYRRSVALRRFVSNVVT-(NH2)i]	–	5 × 10^-4	4 min	140
HSDAVFTDNYSRFRKQMAVRRFVNSVLT-NH2 [Analog IX, HSDAVFTDNYSRFRKQMAVRRFVNSVLT-(NH2)i]	–	7 × 10^-4	–	175
HSDAVFTDNYSRFRKQMAVKKYLNSVLT-NH2 [Chicken VIP, reference compound]	–	0.5	–	1.4
H-HSDAVFSDSYSRFRRSMAVRRYLSNVLT-NH2 [Analog V, HSDAVFSDSYSRFRRSMAVRRYLSNVLT-(NH2)i]	–	0.2	2.5 min	4.2
CC[C@H](C)[C@H](NC(=O)[C@H](CO)NC(=O)[C@H](CC(N)=O)NC(=O)[C@H](CC(C)C)NC(=O)[C@H](Cc1ccc(O)cc1)NC(=O)[C@H](CCCCN)NC(=O)[C@H](CCCCN)NC(=O)[C@@H](NC(=O)[C@H](C)NC(=O)[C@H](CCSC)NC(=O)[C@H](CCC(N)=O)NC(=O)[C@H](CCCCN)NC(=O)[C@H](CCCNC(=N)N)NC(=O)[C@H](CC(C)C)NC(=O)[C@H](CCCNC(=N)N)NC(=O)[C@@H](NC(=O)[C@H](Cc1ccc(O)cc1)NC(=O)[C@H](CC(N)=O)NC(=O)[C@H](CC(=O)O)NC(=O)[C@@H](NC(=O)[C@H](Cc1ccccc1)NC(=O)[C@@H](NC(=O)[C@H](C)NC(=O)[C@H](CC(=O)O)NC(=O)[C@H](CO)NC(=O)[C@@H](N)Cc1c[nH]cn1)C(C)C)[C@@H](C)O)[C@@H](C)O)C(C)C)C(=O)N[C@@H](CC(C)C)C(=O)N[C@@H](CC(N)=O)C(=O)O [reference compound]	–	0.4	–	–
HSDAVFTDNYSRYRRQMAVKKYLNSVLT-NH2 [Analog VII, HSDAVFTDNYSRYRRQMAVKKYLNSVLT-(NH2)i]	–	1.0 × 10^-3	–	86
HSDALFTDTYTRLRKQMAMKKYLNSVLN-NH2 [Guinea Pig VIP, reference compound]	–	0.05	–	20
HSDAVYSDSFSRYRSRVALSRFVRNVVT-NH2 [Analog II, HSDAVYSDSFSRYRSRVALSRFVRNVVT-(NH2)i]	–	1 × 10^-4	7.5 min	550
HSDAVYTDNFSRYRKQVALKKFVNSVVT-NH2 [Analog IV, HSDAVYTDNFSRYRKQVALKKFVNSVVT-(NH2)i]	–	4.4 × 10^-3	5 min	1040
